Measurements: patent publication US20030083484A1, “Antisense modulation of short heterodimer partner-1 expression” (priority 2001, published 2003)
Strand notation (5' to 3'): a small letter for the sugar, then the base; units joined by * are phosphorothioate-linked, units joined directly phosphodiester-linked; [ ] holds rarer units or linkages, { } end groups; capitals alone tell only the bases. e = 2'-O-(2-methoxyethyl) (MOE); [5mC] = 5-methylcytosine; d = 2'-deoxy (DNA)

What was measured:
[1] = system: mouse short heterodimer partner-1 mRNA; assay: Inhibition of mouse short heterodimer partner-1 mRNA levels in primary hepatocytes, quantitative real-time PCR; assay type: cell-based; set-up: concentration or dose not given beside the values; conditions: averages from two experiments
Experimental: (§1) Primary mouse hepatocytes were prepared from CD-1 mice purchased from Charles River Labs (Wilmington, Mass.) and were routinely cultured in Hepatoyte Attachment Media (Gibco) supplemented with 10% Fetal Bovine Serum (Gibco/Life Technologies, Gaithersburg, Md.), 250 nM dexamethasone (Sigma), and 10 nM bovine insulin (Sigma). Cells were seeded into 96-well plates (Falcon-Primaria #3872) at a density of 10000 cells/well for use in RT-PCR analysis.
(§2) Cells were harvested 16-24 hours after oligonucleotide treatment.
(§3) Vacuum was applied for 15 seconds. […] The elution step was repeated with an additional 60 μL water.
(§4) Total RNA is quantified using RiboGreen™ RNA quantification reagent from Molecular Probes.
(§5) Probes and primers to mouse short heterodimer partner-1 were designed to hybridize to a mouse short heterodimer partner-1 sequence, using published sequence information (GenBank accession number L75567, incorporated herein as SEQ ID NO: 10).
All cytidine residues are 5-methylcytidines. […] Data are averages from two experiments. If present, “N.D.” indicates “no data”.

[2] = system: mouse short heterodimer partner-1 mRNA; assay: Dose-response study: inhibition of mouse short heterodimer partner-1 mRNA levels in primary hepatocyte cells, quantitative real-time PCR; assay type: cell-based; conditions: averages from two experiments
Experimental: as §1, §2, §3, §4, §5
In accordance with the present invention, a subset of the antisense oligonucleotides in Example 16 were further investigated in dose-response studies. Treatment doses were 50, 150 and 300 nM.

Row | Substance | % INHIB (inhibition of mouse short heterodimer partner-1 mRNA levels) [1] | Percent Inhibition of mouse short heterodimer partner-1 mRNA levels ([2]; 50 nM oligonucleotide) | Percent Inhibition of mouse short heterodimer partner-1 mRNA levels ([2]; 150 nM oligonucleotide) | Percent Inhibition of mouse short heterodimer partner-1 mRNA levels ([2]; 300 nM oligonucleotide)
1 | 148286 (antisense eA*eG*eT*e[5mC]*eA*dT*d[5mC]*dA*dA*dG*dG*dG*d[5mC]*dT*dT*eG*e[5mC]*eT*eG*eG) [compound 148286] | 71% | 42% | 58% | 80%
2 | 148284 (antisense eG*eA*eG*eG*e[5mC]*dA*d[5mC]*d[5mC]*dA*dG*dA*d[5mC]*dT*d[5mC]*d[5mC]*eA*eT*eT*e[5mC]*e[5mC]) [compound 148284] | 77% | 6% | 55% | 86%
3 | 148287 (antisense eG*eT*eT*e[5mC]*eT*dG*dT*dA*d[5mC]*dA*dA*dA*dG*dT*d[5mC]*eA*eG*eG*eA*eG) [compound 148287] | 74% | 44% | 71% | 89%
